Assay: accelerated stability test
Assay type: physicochemical
Conditions: compared with the known crystalline forms of R-(+)-α-lipoic acid
From the text: Since it is a pharmaceutically active molecule which is notoriously very reactive and tends to polymerise, improved stability obviously represents a very important quality.

For `O=C(O)CCCCC1CCSS1` (stereo not drawn) [new crystalline form, R-(+)-α-lipoic acid], the “stability of the crystalline form” value was “more stable than the known crystalline forms”.
